For orientation: IC50 means the concentration that gives 50% inhibition. Lower therefore signals greater potency in that assay. The term melting point denotes the temperature, or range, at which the solid turns liquid.

Data set [1] deals with 20-HETE synthase originated from rat kidney microsome. The data set can be described thus: Inhibitory effect of 20-HETE synthase originated from rat kidney microsome. Conditions: rat kidney microsome; for Inhibition rate (1 μM): 1 μM of subject compound, 20-HETE production without compound set to 100%; for IC50: concentration at which 20-HETE production was inhibited to 50%. The format is biochemical. An outline of the steps: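 Kidney microsomes from 6-week male spontaneously hypertensive rats were used with tritium-arachidonic acid and NADPH. 20-HETE was quantified by radio-HPLC on a C18 column.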

For `CC(C)Oc1ccc(N/C=N/O)cc1` [Comp. 316], the melting point is 144 to 146 °C. Also, in data set [1], the “Inhibition rate (1 μM)” value worked out at 97.9 and the IC50 was determined as 24 nM.

Molecule `CCCCCOc1ccc(N/C=N/O)cc1` [Comp. 319] showed a melting point of 126 to 137.5 °C. Also, in data set [1], the “Inhibition rate (1 μM)” value worked out at 99.9 and 3.8 nM corresponded to half-maximal inhibition (IC50).

For `CCCCCCOc1ccc(N/C=N/O)cc1` [Comp. 320], the melting point fell in the range of 125 to 126 °C. In addition, in data set [1], the “Inhibition rate (1 μM)” value is 92.5 and the IC50 turned out to be 1.3 nM.

`CCCCCCCOc1ccc(N/C=N/O)cc1` [Comp. 321] had a melting point of 121 to 122.5 °C. Further, in data set [1], the “Inhibition rate (1 μM)” value turned out to be 99.9 and the IC50 came to 3.7 nM.

Take `CCCCCCCCCOc1ccc(N/C=N/O)cc1` [Comp. 323]: the melting point fell in the range of 128 to 130 °C. In data set [1], this molecule registered an IC50 of 25.9 nM.

`CC(C)(C)COc1ccc(N/C=N/O)cc1` [Comp. 324] gave a melting point of 148.5 to 149.5 °C. Besides, in data set [1], the “Inhibition rate (1 μM)” value is recorded as 99 and the IC50 came to 3.7 nM.

Molecule `CC(C)(C)CCOc1ccc(N/C=N/O)cc1` [Comp. 325] gave a melting point of 123 to 125 °C. In data set [1], the “Inhibition rate (1 μM)” value is given as 106 and the IC50 came to 2.6 nM.

The molecule `C=CCCCOc1ccc(N/C=N/O)cc1` [Comp. 329] returned a melting point of 127 to 128 °C. Further, in data set [1], the “Inhibition rate (1 μM)” value amounted to 121.1 and the IC50 amounted to 0.7 nM.

In turn, `C=CCCOc1ccc(N/C=N/O)cc1` [Comp. 330] registered a melting point of 122 to 124 °C. In data set [1], the “Inhibition rate (1 μM)” value came to 118.8 and inhibition was half-maximal at 2.4 nM (IC50).

Molecule `C#CCCCOc1ccc(N/C=N/O)cc1` [Comp. 331] came in with a melting point of 139 to 139.5 °C. Also, in data set [1], the “Inhibition rate (1 μM)” value is 118.8 and the midpoint of inhibition, the IC50, lay at 3.2 nM.

In turn, `C/C=C/C=C/COc1ccc(N/C=N/O)cc1` [Comp. 332] registered a melting point of 169.5 to 170 °C. In data set [1], the “Inhibition rate (1 μM)” value was 110.6 and it took 2.1 nM to reach half-maximal inhibition (IC50).

Take `CC#CCOc1ccc(N/C=N/O)cc1` [Comp. 333]: the melting point is 171.5 to 172 °C. Moreover, in data set [1], the “Inhibition rate (1 μM)” value was 119.3 and the IC50 was found to be 2.2 nM.

Consider `CC(C)=CCOc1ccc(N/C=N/O)cc1` [Comp. 334], for which the melting point fell in the range of 125 to 126 °C. For the same molecule, in data set [1], the “Inhibition rate (1 μM)” value was determined as 105 and half-maximal inhibition (IC50) required 3.2 nM.

The molecule `C#CCCOc1ccc(N/C=N/O)cc1` [Comp. 335] returned a melting point of 139 to 141 °C. Besides, in data set [1], the “Inhibition rate (1 μM)” value came to 110 and inhibition was half-maximal at 1.4 nM (IC50).

`C/C=C/COc1ccc(N/C=N/O)cc1` [Comp. 336]: the melting point is 142.5 to 146 °C. In data set [1], the “Inhibition rate (1 μM)” value came to 117.6 and it took 3.2 nM to reach half-maximal inhibition (IC50).

`CC#CCCOc1ccc(N/C=N/O)cc1` [Comp. 337] displayed a melting point of 135 to 136.5 °C. In addition, in data set [1], the “Inhibition rate (1 μM)” value is recorded as 119.4 and 2.1 nM corresponded to half-maximal inhibition (IC50).

Molecule `CC/C=C/COc1ccc(N/C=N/O)cc1` [Comp. 338] returned a melting point of 100 to 102 °C. In data set [1], the “Inhibition rate (1 μM)” value turned out to be 119.8 and the IC50 was 0.9 nM.

For the molecule `O/N=C/Nc1ccc(OCCN2CCCC2)cc1` [Comp. 339], the melting point fell in the range of 113.5 to 114.5 °C. Moreover, in data set [1], the “Inhibition rate (1 μM)” value was determined as 88 and the IC50 came to 124 nM.

The molecule `O/N=C/Nc1ccc(OCC2COCO2)cc1` (centres unmarked) [Comp. 340] had a melting point of 157.5 to 158 °C. Further, in data set [1], the “Inhibition rate (1 μM)” value amounted to 97.4 and 3 nM corresponded to half-maximal inhibition (IC50).

In the case of `O/N=C/Nc1ccc(OCCC2CCCCC2)cc1` [Comp. 341], the melting point was 129.5 to 133 °C. In data set [1], the “Inhibition rate (1 μM)” value was determined as 104 and the IC50 worked out at 1.2 nM.

The molecule `O/N=C/Nc1ccc(OCc2ccc3ccccc3n2)cc1` [Comp. 342] had a melting point of 174.5 to 175.5 °C. Besides, in data set [1], the “Inhibition rate (1 μM)” value is listed as 98.5 and half-maximal inhibition (IC50) required 5.3 nM.

Regarding `O/N=C/Nc1ccc(OCc2ccccc2)cc1` [Comp. 343], the melting point lay in the range of 166.5 to 167 °C. In addition, in data set [1], the “Inhibition rate (1 μM)” value came out at 84.5 and the IC50 worked out at 3.3 nM.

As for `O/N=C/Nc1ccc(OCc2ccncc2)cc1` [Comp. 344], the melting point lay in the range of 180 to 180.5 °C. Moreover, in data set [1], the “Inhibition rate (1 μM)” value worked out at 107 and the midpoint of inhibition, the IC50, lay at 37.5 nM.

For the molecule `O/N=C/Nc1ccc(OCc2ccccn2)cc1` [Comp. 345, N-[4-(pyridin-2-ylmethoxy)phenyl]-N′-hydroxyformamidine], the melting point was in the range of 159.5 to 161 °C. For the same molecule, in data set [1], the “Inhibition rate (1 μM)” value came out at 107 and the IC50 worked out at 37.5 nM.

Turning to `COCCOc1ccc(N/C=N/O)cc1` [Comp. 346], the melting point fell in the range of 104 to 107 °C. Also, in data set [1], the “Inhibition rate (1 μM)” value is 106.2 and the IC50 turned out to be 8.9 nM.

Molecule `COCCOCCOc1ccc(N/C=N/O)cc1` [Comp. 347] came in with a melting point of 80.5 to 81.5 °C. Besides, in data set [1], the “Inhibition rate (1 μM)” value came out at 105 and the IC50 was determined as 3.7 nM.

Molecule `CC1(C)OCC(COc2ccc(N/C=N/O)cc2)O1` (centres unmarked) [Comp. 348] came in with a melting point of 128.5 to 129.5 °C. In addition, in data set [1], the “Inhibition rate (1 μM)” value came out at 103 and the IC50 was 3.4 nM.

Molecule `O/N=C/Nc1ccc(OCCCc2ccccc2)cc1` [Comp. 349] returned a melting point of 152.5 to 153 °C. Further, in data set [1], the “Inhibition rate (1 μM)” value is recorded as 100 and the 50% inhibitory concentration (IC50) turned out to be 1.6 nM.

In turn, `O/N=C/Nc1ccc(OCc2cccs2)cc1` [Comp. 350] came in with a melting point of 168 to 168.5 °C. Besides, in data set [1], the “Inhibition rate (1 μM)” value was 91 and it took 1.4 nM to reach half-maximal inhibition (IC50).

`O/N=C/Nc1ccc(OCc2ccco2)cc1` [Comp. 352]: the melting point was in the range of 158.5 to 159.5 °C. In data set [1], the “Inhibition rate (1 μM)” value amounted to 97 and half-maximal inhibition (IC50) required 4.6 nM.

Consider `Cc1ncsc1CCOc1ccc(N/C=N/O)cc1` [Comp. 353], for which the melting point lay within 158 to 160 °C. For the same molecule, in data set [1], the “Inhibition rate (1 μM)” value was determined as 105 and half-maximal inhibition (IC50) required 3.7 nM.

`CC(C)OCCOc1ccc(N/C=N/O)cc1` [Comp. 354] yielded a melting point of 113 to 114 °C. In data set [1], the “Inhibition rate (1 μM)” value is listed as 106 and the IC50 worked out at 3 nM.

`O/N=C/Nc1ccc(OCCN2CCOCC2)cc1` [Comp. 355] had a melting point of 141 to 142 °C. Besides, in data set [1], the “Inhibition rate (1 μM)” value is 107 and the midpoint of inhibition, the IC50, lay at 5.9 nM.

Molecule `O/N=C/Nc1ccc(OCC2CC2)cc1` [Comp. 356] displayed a melting point of 141 to 142.5 °C. For the same molecule, in data set [1], the “Inhibition rate (1 μM)” value is on record as 102 and the IC50 stood at 2.6 nM.

Turning to `O/N=C/Nc1ccc(OCCCc2ccccn2)cc1` [Comp. 358], the melting point was in the range of 138 to 139.5 °C. Moreover, in data set [1], the “Inhibition rate (1 μM)” value is listed as 103 and the IC50 was found to be 3.1 nM.

In turn, `O/N=C/Nc1ccc(OCCSc2ccccn2)cc1` [Comp. 359] came in with a melting point of 132.5 to 134.5 °C. Further, in data set [1], the “Inhibition rate (1 μM)” value amounted to 102 and the IC50 came to 1.4 nM.

As to `CCSCCOc1ccc(N/C=N/O)cc1` [Comp. 361], the melting point was in the range of 104 to 106 °C. In data set [1], the “Inhibition rate (1 μM)” value was 106 and half-maximal inhibition (IC50) required 2.1 nM.

As for `O/N=C/Nc1ccc(OCc2cccnc2)cc1` [Comp. 362], the melting point was 156 to 157 °C. In data set [1], the “Inhibition rate (1 μM)” value is 106 and the IC50 came to 2.1 nM.

The molecule `O/N=C/Nc1ccc(OCCCc2cccnc2)cc1` [Comp. 363] had a melting point of 154 to 155 °C. In addition, in data set [1], the “Inhibition rate (1 μM)” value turned out to be 105 and it took 0.78 nM to reach half-maximal inhibition (IC50).

The molecule `CC1(C)COC(CCOc2ccc(N/C=N/O)cc2)OC1` [Comp. 364] showed a melting point of 136.5 to 137.5 °C. Moreover, in data set [1], the “Inhibition rate (1 μM)” value is on record as 104 and half-maximal inhibition (IC50) was put at 2 nM.

Take `O/N=C/Nc1ccc(OCCCOc2ccccc2)cc1` [Comp. 365]: the melting point is 143.5 to 145 °C. For the same molecule, in data set [1], the “Inhibition rate (1 μM)” value was 105 and half-maximal inhibition (IC50) required 1.4 nM.

As for `O/N=C/Nc1ccc(OCCCc2ccncc2)cc1` [Comp. 366], the melting point lay within 188 to 189 °C. In addition, in data set [1], the “Inhibition rate (1 μM)” value is 105 and the IC50 amounted to 1.2 nM.

`O/N=C/Nc1ccc(OCc2ccsc2)cc1` [Comp. 367]: the melting point fell in the range of 165 to 166 °C. In data set [1], the “Inhibition rate (1 μM)” value came to 103 and the IC50 came out at 2.1 nM.

`O/N=C/Nc1ccc(OCc2ccoc2)cc1` [Comp. 368] showed a melting point of 165.5 to 166 °C. Besides, in data set [1], the “Inhibition rate (1 μM)” value was determined as 96 and half-maximal inhibition (IC50) required 2.5 nM.

In turn, `Cc1cccc(COc2ccc(N/C=N/O)cc2)n1` [Comp. 369] returned a melting point of 146.5 to 149 °C. Also, in data set [1], the “Inhibition rate (1 μM)” value was found to be 105 and the IC50 amounted to 3.1 nM.

In turn, `CCOCCCOc1ccc(N/C=N/O)cc1` [Comp. 371] registered a melting point of 93 to 94 °C. Moreover, in data set [1], the “Inhibition rate (1 μM)” value is 110.4 and the concentration for half-maximal inhibition (IC50) was determined as 0.9 nM.

As for `CCCCOCCOc1ccc(N/C=N/O)cc1` [Comp. 373], the melting point was 97 to 99 °C. Moreover, in data set [1], the “Inhibition rate (1 μM)” value was found to be 115.3 and the IC50 was determined as 0.8 nM.

`COc1ccccc1COc1ccc(N/C=N/O)cc1` [Comp. 382] displayed a melting point of 153 to 153.5 °C. Also, in data set [1], the “Inhibition rate (1 μM)” value was found to be 122.5 and the IC50 is 3.1 nM.

On to `O/N=C/Nc1ccc(OCc2cc(F)ccc2F)cc1` [Comp. 384], for which the melting point lay within 167 to 167.5 °C. In addition, in data set [1], the “Inhibition rate (1 μM)” value turned out to be 117.3 and the half-maximal inhibitory concentration (IC50) stood at 2.8 nM.

For the molecule `CSc1ccc(COc2ccc(N/C=N/O)cc2)cc1` [Comp. 387], the melting point lay within 163 to 164 °C. In data set [1], the “Inhibition rate (1 μM)” value was 97.8 and it took 0.9 nM to reach half-maximal inhibition (IC50).

The values are drawn from US7078400B2, “20-HETE synthase inhibitor” (Taisho Pharmaceutical Co., Ltd., priority 1999, dated 2006).
